Test results taken from PMC10855164, “Ligand-Based Design of Selective Peptidomimetic uPA and TMPRSS2 Inhibitors with Arg Bioisosteres” (International Journal of Molecular Sciences, 2024).

Target: T1, tPA (Homo sapiens, UniProt P00750)
T1 construct: purchased Sigma Aldrich
Assay: colorimetric enzyme inhibition assay, tPA (N-methylsulfonyl-D-Phe-Gly-Arg-pNA)
Assay type: biochemical
Conditions: from IC50 by Cheng-Prusoff; n.a. = not active, <80% inhibition at 20 µM
Procedure: The inhibitory activity of the synthesized compounds towards the respective main- and off-target proteases was measured via fluorometric and colorimetric assays. Thus, fluorogenic AMC- or colorimetric pNA-based substrates with a peptide sequence suitable for the tested protease were utilized (see Supplementary Figure S2). At first, the compounds were screened against […] proteases (uPA, TMPRSS2, matriptase, tPA, thrombin, factor Xa) at 20 µM, and a cut-off value of 80% inhibition at this concentration was set, for the differentiation between nonactive (n.a.) and active inhibitors. Due to the reversible inhibition mechanism of the ketobenzothiazole derivates, the IC50 values were determined with Graphpad Prism 9, and afterwards converted to the corresponding Ki values for an adequate comparison between the inhibitory activities of the compounds toward all tested proteases. The Ki values were calculated using the Cheng–Prusoff equation [43].
Fluorometric inhibition assays
The inhibitory activities of the compounds against the proteases were determined by enzyme inhibition assays with fluorogenic or colorimetry-based substrates. The fluorescence, caused by cleaved AMC from the fluorogenic substrates (uPA, matriptase, TMPRSS2, thrombin), was measured in white flat-bottom 96-well plates from Greiner Bio-One using a Tecan Infinite F200 Pro plate reader. The absorption, caused by cleaved pNA from colorimetric substrates (factor Xa and tPA), was measured in transparent flat-bottom 96-well plates from Greiner Bio-One using a Tecan Spark 10M plate reader. All measurements with the main-target proteases (uPA and TMRPSS2) were performed as triplicates and with the off-target proteases (matriptase, factor Xa, tPA, thrombin) as duplicates. The substrates and the compounds were prepared as stock solutions in DMSO. Each well contained a total volume of 200 µL, consisting of 185 µL buffer, 5 µL inhibitor in DMSO or pure DMSO as negative control, 5 µL substrate in DMSO and 5 µL enzyme solution in buffer. Dilution series were prepared for the determination of the inhibition constants. The fluorescence signal and absorbance were measured every 30 s for 10 min at 25 or 37 °C with the corresponding excitation/emission (λex = 380 nm / λem = 460 nm) and absorbance (λabs = 405 nm) wavelengths, depending on the targeted protease. IC50 values for the reversible inhibitors were calculated with Graphpad Prism 9 by fitting the remaining enzymatic activity to the four parameter IC50 equation with Y [%] as the residual enzyme activity , Ymax as the maximum value of the dose response curve at inhibitor concentrations [I] = 0 µM, Ymin as the minimum value at high inhibitor concentrations and s as the hill coefficient.[1] The fluorescence progress curves and sigmoidal dose-response curve for inhibition of uPa by compound 38 is shown exemplary in Figure S2. […]
Due to the dependence of the IC50 value on the substrate affinity and concentration, the Ki values were calculated with the Cheng-Prusoff equation, using the final substrate concentration [S] and the Michaelis-Menten constant KM, (2) for appropriate comparison of the inhibitory activities to the other enzymes and inhibitors.[1]
KM values were determined by fitting to the Michaelis-Menten equation using Graphpad Prism 9 with v [ΔF/min] as the substrate hydrolysis rate, vmax as the maximum slope of the dose-response curve, and the substrate [S] concentration.[1] The different substrates were serially diluted in DMSO. […]

T1 sequence (P00750 36-562): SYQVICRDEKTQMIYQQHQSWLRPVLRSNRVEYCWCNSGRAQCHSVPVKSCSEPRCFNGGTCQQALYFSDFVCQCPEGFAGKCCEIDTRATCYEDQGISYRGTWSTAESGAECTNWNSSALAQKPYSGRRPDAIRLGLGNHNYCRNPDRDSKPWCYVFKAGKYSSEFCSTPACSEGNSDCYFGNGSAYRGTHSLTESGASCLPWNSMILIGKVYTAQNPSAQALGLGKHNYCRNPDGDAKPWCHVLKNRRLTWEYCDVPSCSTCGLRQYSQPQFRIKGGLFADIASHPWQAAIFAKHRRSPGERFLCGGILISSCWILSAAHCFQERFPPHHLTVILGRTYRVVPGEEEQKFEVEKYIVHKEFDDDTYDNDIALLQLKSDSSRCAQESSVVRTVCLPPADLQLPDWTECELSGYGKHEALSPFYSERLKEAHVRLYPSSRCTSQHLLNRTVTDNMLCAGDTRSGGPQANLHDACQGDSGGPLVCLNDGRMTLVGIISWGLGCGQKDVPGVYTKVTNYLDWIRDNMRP

Q: CC(=O)NCC(=O)NC(C(=O)NC(C)C(=O)NC(CC1CCC(NC(=N)N)CC1)C(=O)c1nc2ccccc2s1)C(C)O (stereo not shown) [Compound 38] was tested. Which “Ki tPA” value did it give?
A: did not inhibit
